Measurements published in patent US20060051436A1, “Composition for controlling excessive calorie intake-induced disorder, food product for controlling excessive calorie intake-induced disorder, skin preparation for external use for controlling excessive calorie intake-induced disorder, and controlling agent for excessive calorie intake-induced …” (Towa Corporation Kabushiki Kaisha, priority 2004, published 2006).
Marks after values point to notes of the source that are not given here.

How the values were obtained:
[1] = Body weight and food intake of OLETF rats; format: in vivo, rat; settings: M±SE
From the text: The rats that were the subjects of the experiment were divided into three groups: a Control group to be fed a control diet, a Hercampuri group to be fed a Hercampuri-enriched diet, and an Acarbose group to be fed an Acarbose-enriched diet. […] This control diet was purified animal feed containing casein as the source of protein. The Hercampuri-enriched diet fed to the rats in the Hercampuri group was produced by adding Hercampuri extract powder at a mixing ratio of 2% to the control diet. The Acarbose-enriched diet fed to the rats in the Acarbose group was produced by adding Acarbose (product of Bayer AG) at a mixing ratio of 0.2% to the control diet. For each experimental diet, the amount of the added subject ingredient was compensated for by adjusting the amount of corn starch. Male OLETF rats and LETO rats delivered from Tokushima Research Institute of Otsuka Pharmaceutical Co., Ltd. were used as the subject animals. Each one of these OLETF rats and LETO rats was born during the period of June 10th to June 13th in 2002. […] The rats had free access to feed (CE-2: product of Clea Japan, Inc.) and drinking water (tap water). […] During the experiment, the body weights and the amounts of food intake were measured every other day. […]

[2] = tested on: cholesterol 7α-hydroxylase; assay: 7α-hydroxylase activity in liver microsome fraction of OLETF rats; format: in vivo, rat; settings: M±SE
Description: Purified liver microsome fraction was produced according to a normal method, and the cholesterol in the liver microsome fraction was used as the substrate. The activity of cholesterol 7α-hydroxylase was determined by HPLC in accordance with the method described in “An improved method for assay of cholesterol 7α-hydroxylase activity” by Tadashi Ogishima and one other member (USA, Analytical Biochemistry, vol. 158, p 228-232, 1986). The results of measurement of 7α-hydroxylase activity are shown in terms of the amount of HCO (7α-hydroxy-4-cholesten-3-on) generated per 1 mg of protein content in one minute in the microsome fraction (pmol/min/mg of microsome protein).

[3] = tested on: Otsuka Long-Evans Tokushima Fatty (OLETF) rats; assay: Serum glucose, free fatty acids and insulin in OLETF rats; format: in vivo, rat; settings: end of six-week experiment, M±SE
Description: Six week after the initiation of the experiment, without prior abstinence from feed, each rat was anesthetized by administering approximately 50 mg/kg of pentobarbital sodium (product of Dainippon Pharmaceutical Co., Ltd.) into the abdominal cavity to remove all of its blood via the abdominal aorta with an injection syringe. This operation was performed during the period from 10:00 am to 12:00 am. The blood obtained by the operation was set aside for 1 hour at room temperature and subsequently at 4° C. for a period in the range of 1 to 2 hours. Thereafter, blood serum was separated by means of centrifugation at 2500 rpm at 4° C. for 10 minutes. Furthermore, the glucose and free fatty acid content in he serum were enzymatically measured with commercial kits (Glucose CII-Test Wako and NEFA C-Test Wako; products of Wako Pure Chemical Industries, Ltd.), respectively. The serum insulin content was determined in accordance with the Sandwich ELISA (enzyme-linked immunosorbent assay) method using a Rat insulin ELISA kit (product of Shibayagi Co., Ltd.). Therefore, the insulin content is shown in terms of Immuno-reactive insulin (IRI; pg/ml).

[4] = tested on: Otsuka Long-Evans Tokushima Fatty (OLETF) rats; assay: Serum and lipoprotein fraction cholesterol, phospholipid, triglyceride in OLETF rats; format: in vivo, rat; settings: end of six-week experiment, M±SE
Description: Six week after the initiation of the experiment, without prior abstinence from feed, each rat was anesthetized by administering approximately 50 mg/kg of pentobarbital sodium (product of Dainippon Pharmaceutical Co., Ltd.) into the abdominal cavity to remove all of its blood via the abdominal aorta with an injection syringe. This operation was performed during the period from 10:00 am to 12:00 am. The blood obtained by the operation was set aside for 1 hour at room temperature and subsequently at 4° C. for a period in the range of 1 to 2 hours. Thereafter, blood serum was separated by means of centrifugation at 2500 rpm at 4° C. for 10 minutes. Fractions of various lipoproteins were separated from the blood serum obtained at the time of whole blood extraction. […] Therefore, it is not possible with step-wise density gradient ultracentrifugation employed for this experiment to exclusively separate native LDL, and the LDL fraction separated in this stage contains HDL1 that existed together with LDL. The cholesterol, phospholipid, and triglyceride contents in the serum and each lipoprotein fraction were enzymatically measured with commercial kits (Cholesterol E-Test Wako, Phospholipid C-Test Wako, and Triglyceride E-Test Wako; products of Wako Pure Chemical Industries, Ltd.), respectively.

[5] = tested on: Otsuka Long-Evans Tokushima Fatty (OLETF) rats; assay: Serum apolipoprotein contents in OLETF rats; format: in vivo, rat; settings: M±SE
Description: The respective contents of various apolipoproteins, i.e. apoA-I, apoB, and apoE, as well as the respective apoE contents in the LDL and HDL fractions, were determined by the rocket immunoelectrophoresis method described in “Age-related changes in serum concentrations of apolipoprotein A-I, E, and A-IV in SHRSP” by Hiroshi Ogawa and 4 other members (G.B., Journal of Hypertension, vol. 4, p 429-453, 1986). The aforementioned immunoelectrophoresis method is in accordance with the Laurell method and adjustment of a part of the method presented by C. B. Laurell in “Quantitative estimation of proteins by electrophoresis in agarose-gel containing antibodies” (USA, Analytical Biochemistry, vol. 15, p 42-52, 1966). The antibodies used for this measurement were specific antibodies obtained from rabbits by using antigens that were various apolipoproteins separated and refined from rat serum. Furthermore, apoB/apoA-I was calculated from the results of measurement of apoA-I and apoB.

[6] = tested on: Otsuka Long-Evans Tokushima Fatty (OLETF) rats; assay: Liver weight ratio and liver lipid contents in OLETF rats; format: in vivo, rat; settings: end of six-week experiment, M±SE
Description: Immediately after the extraction of all the blood, the liver was quickly removed from all the rats in each group, and the wet weight of each liver was measured. The liver weight ratio of each rat is shown in terms of the liver weight per unit of body weight (100 g) at the time of removal. Extraction of lipid from each liver was performed in accordance with the method described in “A simple method for the isolation and purification of total lipids from animal tissues” (Folch and two other members, Journal of Biological Chemistry, vol. 226, p 497-509, 1957). A part of the lower layer of the liquid liver extract (the chloroform-containing layer) was separated, and the chloroform contained therein was evaporated under nitrogen gas current. The liquid with the chloroform removed was used as a sample for measuring liver lipid contents. The cholesterol, phospholipid, and triglyceride contents in the liver were enzymatically measured with commercial kits (Cholesterol E-Test Wako, Phospholipid C-Test Wako, and Triglyceride E-Test Wako; products of Wako Pure Chemical Industries, Ltd.), respectively.

[7] = tested on: streptozotocin (STZ)-induced diabetic rats; settings: Planta Medica 1994, 1995; cited from earlier work

Compound	Food intake ([1]; average over six weeks)	Body weight ([1]; end of six-week experiment)	7α-hydroxylase [2] [nmol/min/mg protein]	Serum FFA [3]	Serum Glucose [3]	Serum IRI (immuno-reactive insulin) [3]	Serum Cholesterol [4]	Serum Phospholipid [4]	Serum Triglyceride [4]	ApoB/apoA-I (×100) ([5]; calculated from apoA-I and apoB)	Serum apoA-I ([5]; end of six-week experiment)	Serum apoB ([5]; end of six-week experiment)	Serum apoE ([5]; end of six-week experiment)	Liver Cholesterol [6] [mg/wet g]	Liver Phospholipid [6] [mg/wet g]	Liver Triglyceride [6] [mg/wet g]	Liver weight [6] [g/100 g B.W.]	Blood sugar levels [7]
C[C@H]1O[C@H](O[C@H]2[C@H](O)[C@@H](O)[C@@H](O[C@H]3[C@H](O)[C@@H](O)C(O)O[C@@H]3CO)O[C@@H]2CO)[C@H](O)[C@@H](O)[C@@H]1N[C@H]1C=C(CO)[C@@H](O)[C@H](O)[C@H]1O (stereo partly drawn) [Acarbose]	12.9 ± 0.9^a g/rat/day	639 ± 14^b g	34.5	751 ± 38^c μEq/L	193 ± 12^c mg/dL	665 ± 231^b pg/mL	150 ± 11^b mg/dL	178 ± 10^b mg/dL	55.6 ± 1.7^c mg/dL	3.15 ± 0.06^c	126 ± 4^a mg/dL	3.95 ± 0.14^b mg/dL	55.5 ± 2.7^b mg/dL	5.39	32.9	75.4	3.40	–
COc1cc(O)c2c(=O)c3c(O)ccc(O)c3oc2c1 [Bellidifolin]	–	–	–	–	–	–	–	–	–	–	–	–	–	–	–	–	–	has a function of reducing blood sugar levels
